Common to all, as to format: cell-based
The test system of assay [1] is Wnt activity (Wnt-responsive human Sp5 promoter, TCF/LEF binding sites) in SW480 colon carcinoma cells. Briefly: Wnt activity screening assay: Sp5-Luc luciferase reporter gene in SW480 cells. The settings on record: for EC50: 10-point dose-response from 10 μM, incubated overnight; for inhibition at 10 µM: given for EC50 of >10 μM, read-out: percent inhibition at 10 μM. In a few lines:
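SW480 cells stably transduced with an Sp5 promoter (eight TCF/LEF sites)–firefly luciferase lentiviral reporter, plated at 4,000 cells/well in 1% FBS medium with compounds (10-point 1:3 series from 10 μM, 0.1% DMSO) overnight at 37 °C. BrightGlo luminescence normalised to DMSO; EC50 by four-parameter fit, else % inhibition at 10 μM.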

In the next assay the test system is SW480 colon cancer cells. Briefly: Cell viability assay (CellTiter-Blue), four days. The conditions noted are these: Homo sapiens, 96 h; for EC50: CellTiter-Blue cell viability; for inhibition at 10 µM: read-out: percent inhibition at 10 μM (given for EC50 of >10 μM). The method in brief:
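Resazurin reduction (Ex 560/Em 590 nm, ~3 h reagent incubation) served as the viability read-out after SW480 cells were treated for four days at 37 °C. Doses ran from 10 μM down to 0.0045 μM in eight 1:3 steps. Curves fitted non-linearly for EC50, else % inhibition at 10 μM reported.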

Assay [2] relates to IL-6 in human monocyte cell line (THP-1 cells). Briefly: IL-6 inhibition in LPS-stimulated THP-1 cells (HTRF). The settings on record: IL-6 in LPS-stimulated THP-1 cells; for EC50: HTRF; for inhibition at 10 µM: read-out: percent inhibition in brackets beside EC50 >10 μM. The method in brief:
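Readout is the 665/620 nm HTRF ratio for secreted IL-6, normalized to DMSO wells, with EC50 from a variable-slope four-parameter fit, or % inhibition at 10 μM when above 10 μM. Cells (1% FBS, 24 h beforehand) got compound for 2 h, then LPS 500 ng/mL for 22 h at 37° C; top dose 10 μM, 0.1% DMSO.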

A value given as a limit tells only on which side of the number the result lay.

As to `CC(C)CC(=O)Nc1cncc(-c2ccc3[nH]nc(-c4nc5c(-c6cccc(F)c6)nccc5[nH]4)c3n2)c1` [Compound 2, N-(5-(3-(4-(3-Fluorophenyl)-1H-imidazo[4,5-c]pyridin-2-yl)-1H-pyrazolo [4,3-b]pyridin-5-yl)pyridin-3-yl)-3-methylbutanamide], the values for the EC50 (in assay [1]; in the assay with SW480 colon cancer cells; in assay [2]) were 8.63 µM, 2.7 µM and over 10 µM, respectively. Moreover, the inhibition at 10 µM in assay [2] worked out at 2.5%.
Consider `CN(C)c1cncc(-c2ccc3[nH]nc(-c4nc5c(-c6cccc(F)c6)nccc5[nH]4)c3n2)c1` [Compound 7], for which the figures for the EC50 (in assay [1]; in the assay on SW480 colon cancer cells; in assay [2]) were 0.379 µM, 0.944 µM and 3.11 µM, respectively.
In the same order, the values of `CN(C)Cc1cncc(-c2ccc3[nH]nc(-c4nc5c(-c6cccc(F)c6)nccc5[nH]4)c3n2)c1` [Compound 13, 1-(5-(3-(4-(3-Fluorophenyl)-1H-imidazo[4,5-c]pyridin-2-yl)-1H-pyrazolo [4,3-b]pyridin-5-yl)pyridin-3-yl)-N,N-dimethylmethanamine] are 1.06 µM, 0.641 µM and 3.82 µM.
As for `Fc1cccc(-c2nccc3[nH]c(-c4n[nH]c5ccc(-c6ccncc6)nc45)nc23)c1` [Compound 18, 3-(4-(3-Fluorophenyl)-1H-imidazo[4,5-c]pyridin-2-yl)-5-(pyridin-4-yl)-1H-pyrazolo[4,3-b]pyridine], the results for the half-maximal effective concentration (EC50) (in assay [1]; in the assay on SW480 colon cancer cells; in assay [2]) were 0.843 µM, 2.78 µM and over 10 µM, respectively. Besides, in assay [2], the inhibition at 10 µM was determined as 4.6%.
Consider `O=C(Nc1cncc(-c2ccc3[nH]nc(-c4nc5c(-c6cccc(F)c6)nccc5[nH]4)c3n2)c1)C1CC1` [Compound 20, N-(5-(3-(4-(3-Fluorophenyl)-1H-imidazo[4,5-c]pyridin-2-yl)-1H-pyrazolo [4,3-b]pyridin-5-yl)pyridin-3-yl)cyclopropanecarboxamide], for which the EC50 (in assay [1]; in the assay with SW480 colon cancer cells; in assay [2]) was over 10 µM each time. Further, the inhibition at 10 µM in assay [1] is 14.7%; in the assay with SW480 colon cancer cells it was 6%; in assay [2], 0%.
Regarding `CN(C)c1cncc(-c2ccc3[nH]nc(-c4nc5c(-c6cccs6)nccc5[nH]4)c3n2)c1` [Compound 343, N,N-Dimethyl-5-(3-(4-(thiophen-2-yl)-1H-imidazo[4,5-c]pyridin-2-yl)-1H-pyrazolo[4,3-b]pyridin-5-yl)pyridin-3-amine], the EC50 in assay [1] was determined as 0.803 µM; in the assay with SW480 colon cancer cells, 0.455 µM; in assay [2], 3.43 µM.
With `CN(C)Cc1cncc(-c2ccc3[nH]nc(-c4nc5c(-c6cccs6)nccc5[nH]4)c3n2)c1` [Compound 349, N,N-dimethyl-1-(5-(3-(4-(thiophen-2-yl)-1H-imidazo[4,5-c]pyridin-2-yl)-1H-pyrazolo[4,3-b]pyridin-5-yl)pyridin-3-yl)methanamine], the EC50 was 8.02 µM in assay [1], 1.27 µM in the assay on SW480 colon cancer cells and over 10 µM in assay [2]. Further, the inhibition at 10 µM in assay [2] is 0%.
Regarding `O=C(Nc1cncc(-c2ccc3[nH]nc(-c4nc5c(-c6cccs6)nccc5[nH]4)c3n2)c1)C1CC1` [Compound 356, N-(5-(3-(4-(Thiophen-2-yl)-1H-imidazo[4,5-c]pyridin-2-yl)-1H-pyrazolo [4,3-b]pyridin-5-yl)pyridin-3-yl)cyclopropanecarboxamide], the 50% effective concentration (EC50) (in assay [1]; with SW480 colon cancer cells; in assay [2]) was over 10 µM throughout. Moreover, the inhibition at 10 µM was found to be 4.1% in assay [1], 1.5% with SW480 colon cancer cells and 0% in assay [2].
For the compound `Cc1ccc(-c2nccc3[nH]c(-c4n[nH]c5ccc(-c6cncc(N)c6)nc45)nc23)s1` [Compound 395, 5-(3-(4-(5-Methylthiophen-2-yl)-1H-imidazo[4,5-c]pyridin-2-yl)-1H-pyrazolo[4,3-b]pyridin-5-yl)pyridin-3-amine], the EC50 in assay [1] was determined as 0.05 µM; in the assay on SW480 colon cancer cells, 0.156 µM; in assay [2] it was 0.142 µM.
Take `Cc1ccc(-c2nccc3[nH]c(-c4n[nH]c5ccc(-c6cncc(NC(=O)C(C)C)c6)nc45)nc23)s1` [Compound 401, N-(5-(3-(4-(5-Methylthiophen-2-yl)-1H-imidazo[4,5-c]pyridin-2-yl)-1H-pyrazolo [4,3-b]pyridin-5-yl)pyridin-3-yl)isobutyramide]: the EC50 (in assay [1]; in the assay with SW480 colon cancer cells; in assay [2]) was over 10 µM each time. Moreover, the inhibition at 10 µM in assay [1] turned out to be 17.2%; with SW480 colon cancer cells it was 2.5%; in assay [2], 0%.
As to `Cc1ccc(-c2nccc3[nH]c(-c4n[nH]c5ccc(-c6cncc(NC(=O)C7CCCC7)c6)nc45)nc23)s1` [Compound 414, N-(5-(3-(4-(5-Methylthiophen-2-yl)-1H-imidazo[4,5-c]pyridin-2-yl)-1H-pyrazolo[4,3-b]pyridin-5-yl)pyridin-3-yl)cyclopentanecarboxamide], the EC50 (in assay [1]; with SW480 colon cancer cells; in assay [2]) was over 10 µM in each case. In addition, the inhibition at 10 µM in assay [1] was determined as 23.8%; with SW480 colon cancer cells it was 0.4%; in assay [2] it was 46.3%.
Take `CCNCc1cncc(-c2ccc3[nH]nc(-c4nc5c(-c6cc(F)cc(NCCN(C)C)c6)nccc5[nH]4)c3n2)c1` [Compound 454, N^1-(3-(2-(5-(5-((Ethylamino)methyl)pyridin-3-yl)-1H-pyrazolo[4,3-b]pyridin-3-yl)-1H-imidazo[4,5-c]pyridin-4-yl)-5-fluorophenyl)-N^2,N^2-dimethylethane-1,2-diamine]: the figures for the half-maximal effective concentration (EC50) (in assay [1]; with SW480 colon cancer cells; in assay [2]) were 9.95 µM, 6.6 µM and 1.03 µM, respectively.
In the same order, the values of `CC(C)Nc1cncc(-c2ccc3[nH]nc(-c4nc5c(-c6cc(F)cc(NCCN(C)C)c6)nccc5[nH]4)c3n2)c1` [Compound 460, N^1-(3-Fluoro-5-(2-(5-(5-(isopropylamino)pyridin-3-yl)-1H-pyrazolo[4,3-b]pyridin-3-yl)-1H-imidazo[4,5-c]pyridin-4-yl)phenyl)-N^2,N^2-dimethylethane-1,2-diamine] are 1.03 µM, 0.585 µM and 1.25 µM.
On to `CCCCC(=O)Nc1cncc(-c2ccc3[nH]nc(-c4nc5c(-c6cc(F)cc(NCCN(C)C)c6)nccc5[nH]4)c3n2)c1` [Compound 467, N-(5-(3-(4-(3-((2-(Dimethylamino)ethyl)amino)-5-fluorophenyl)-1H-imidazo[4,5-c]pyridin-2-yl)-1H-pyrazolo[4,3-b]pyridin-5-yl)pyridin-3-yl)pentanamide], for which the EC50 (in assay [1]; in the assay on SW480 colon cancer cells; in assay [2]) was over 10 µM each time. Further, the figures for the inhibition at 10 µM (in assay [1]; with SW480 colon cancer cells; in assay [2]) were 0%, 0% and 33.1%, respectively.
For `CN(C)CCNc1cc(F)cc(-c2nccc3[nH]c(-c4n[nH]c5ccc(-c6ccccn6)nc45)nc23)c1` [Compound 476, N^1-(3-Fluoro-5-(2-(5-(pyridin-2-yl)-1H-pyrazolo[4,3-b]pyridin-3-yl)-1H-imidazo[4,5-c]pyridin-4-yl)phenyl)-N^2,N^2-dimethylethane-1,2-diamine], the results for the 50% effective concentration (EC50) (in assay [1]; in the assay on SW480 colon cancer cells; in assay [2]) were 8.65 µM, 6.25 µM and over 10 µM, respectively. Also, the inhibition at 10 µM in assay [2] stood at 35.8%.
For the compound `Cc1ccncc1-c1ccc2[nH]nc(-c3nc4c(-c5cc(F)cc(CNS(C)(=O)=O)c5)nccc4[nH]3)c2n1` [Compound 481, N-(3-Fluoro-5-(2-(5-(4-methylpyridin-3-yl)-1H-pyrazolo[4,3-b]pyridin-3-yl)-1H-imidazo[4,5-c]pyridin-4-yl)benzyl)methanesulfonamide], the EC50 was determined as 2.37 µM in assay [1], 7.14 µM with SW480 colon cancer cells and 9.81 µM in assay [2].
For the compound `CS(=O)(=O)NCc1cc(F)cc(-c2nccc3[nH]c(-c4n[nH]c5ccc(-c6cncc(NC(=O)c7ccccc7)c6)nc45)nc23)c1` [Compound 487, N-(5-(3-(4-(3-Fluoro-5-(methylsulfonamidomethyl)phenyl)-1H-imidazo[4,5-c]pyridin-2-yl)-1H-pyrazolo[4,3-b]pyridin-5-yl)pyridin-3-yl)benzamide], the EC50 (in assay [1]; in the assay with SW480 colon cancer cells; in assay [2]) was over 10 µM in each case. For the same compound, the inhibition at 10 µM in assay [1] stood at 0%; with SW480 colon cancer cells, 0%; in assay [2], 16.9%.
Take `CCCC(=O)Nc1cncc(-c2ccc3[nH]nc(-c4nc5c(-c6cc(F)cc(CNS(C)(=O)=O)c6)nccc5[nH]4)c3n2)c1` [Compound 493, N-(5-(3-(4-(3-Fluoro-5-(methylsulfonamidomethyl)phenyl)-1H-imidazo[4,5-c]pyridin-2-yl)-1H-pyrazolo[4,3-b]pyridin-5-yl)pyridin-3-yl)butyramide]: the EC50 (in assay [1]; in the assay on SW480 colon cancer cells; in assay [2]) was over 10 µM each time. The inhibition at 10 µM in assay [1] worked out at 15.1%; in the assay on SW480 colon cancer cells it was 4.3%; in assay [2] it was 20.3%.

These data come from patent US10195185B2, “3-(1H-imidazo[4,5-C]pyridin-2-yl)-1H-pyrazolo[4,3-B]pyridines and therapeutic uses thereof” (Samumed, LLC, priority 2015, dated 2019).
